# No end group written: not given here.
# Molecular target: T1, APC (Homo sapiens, UniProt P04070)
# T1 construct: begins at amino acid residue position 158 and ends at 419; The light chain is 155 amino acid residues in length; tissue Factor IX concentrate from Immuno AG, Vienna; thrombin from Enzyme Research Laboratories
# Assay: APC anticoagulant activity, APTT and Xa-1-stage coagulation assays (mean or both)
# Format: biochemical
# Details: 500 μM peptide; mean of APTT and Xa-1-stage assays; 0 = no observable effect ± 10%
# Experimental: (§1) The effect of the synthetic peptides on APC anticoagulant activity were determined using the APTT assay in the presence of either normal citrate anticoagulated plasma (NHP) or protein S depleted plasma (PSDP). The assays were performed essentially as described. See Marlar et al., Blood, 59:1067-1072 […]; Suzuki et al., J. Biol. Chem., 258:163-168 (1983); Gruber et al., Blood, 73:639-642 (1989); Ohlin et al., Biochem., 29:644-651 (1990). NHP was purchased from George King Bio-Medical, Inc. (Overland Park, Kans.). PSDP was prepared from a normal human citrate-anticoagulated plasma pool from ten healthy donors. Protein S was immunodepleted from the NHP by immunoaffinity chromatography of NHP over an anti-protein S antibody column to form PSDP. The anti-protein S antibody column was prepared by coupling 100 mg of a monoclonal, high-affinity, calcium-independent anti-PS antibody, designated S7, to 30 ml of CNBr-activated Sepharose 4B (Pharmacia) as described in Example 2c1).
# For the APTT assay, APC was prepared as described in Example 2c2). […] The concentration of the APC used in the assay was initially optimized with respect to the sensitivity of the assay towards APC-induced prolongation of clotting time compared to clotting time without APC.
# (§2) Once the optimal concentration of APC was determined, peptides from Table 2 were then separately admixed for a final concentration of 500 μM with 10 nM APC in 100 μl of TBS-BSA at pH 7.4 to form peptide-APC admixtures. The resulting admixtures were maintained for seven minutes at 37° C. Separate aliquots of peptides maintained under the same conditions in the absence of APC served as controls for the inhibitory effect of synthetic peptides on APC anticoagulant activity. After the maintenance period, 100 μl of NHP and 100 μl APTT-reagent Thrombosil (Ortho Diagnostics, Raritan, N.J.) were admixed into each peptide admixture and maintained for 200 seconds at 37° C. to form a pre-coagulation admixture. In some experiments, PSDP was used in the place of NHP to determine the effect of Protein S on the assay system. Coagulation was then initiated by the admixture of 100 μl of 30 mM CaCl2 in TBS prewarmed to 37° C. to each of the pre-coagulation admixtures. The time for clot formation was measured by an Electra 700 Automatic Coagulation Timer (Medical Laboratory Automation, Inc., Mount Vernon, N.Y.). Each peptide's effect was determined in duplicate.
# The synthetic peptides listed in Table 4 are presented in the same order as listed in Table 2, i.e., are reproduced from Table 2. […] For peptides at a concentration of 500 μM that inhibited at least 50% of APC anticoagulant activity, analysis of dose-response was subsequently conducted. The column in Table 4 labeled "Inhibition of APC" represents the inhibition of APC anticoagulant activity measured with 500 μM peptide.
# For testing the inhibition of the synthetic peptides on APC activity described above, Xa-1-stage coagulation assays were also performed as described. See Seegers et al., Thrombosis Res., 13:233-243 (1978); Marlar et al., supra; and Walker et al., J. Biol. Chem. 265:1484-1489 (1990).
# T1 sequence (P04070 212-461): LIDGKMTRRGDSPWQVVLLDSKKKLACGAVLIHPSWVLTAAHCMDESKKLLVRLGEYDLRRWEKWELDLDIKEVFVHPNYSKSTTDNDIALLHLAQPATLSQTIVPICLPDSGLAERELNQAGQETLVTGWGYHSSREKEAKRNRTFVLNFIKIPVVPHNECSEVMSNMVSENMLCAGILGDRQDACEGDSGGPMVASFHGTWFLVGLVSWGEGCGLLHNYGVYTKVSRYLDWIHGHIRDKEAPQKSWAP
# T1 sequence (P04070 43-197): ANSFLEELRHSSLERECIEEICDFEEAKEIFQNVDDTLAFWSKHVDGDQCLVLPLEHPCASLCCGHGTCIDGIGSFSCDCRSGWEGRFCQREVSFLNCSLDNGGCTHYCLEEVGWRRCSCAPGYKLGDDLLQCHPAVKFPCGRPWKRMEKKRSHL
Substance,inhibition at 500 µM,Inhibition of APC (%)
DESKKLLVRLGEYDL [peptide-(214-230)],–,0%
"DIKEVFVHPNYSKST-NH2 [(239-253), DIKEVFVHPNYSKST]",20%,–
"DTEDQEDQVDPRLID-NH2 [peptide-(158-172), DTEDQEDQVDPRLID]",0%,–
"ELDLDIKEVFVHPNY-NH2 [peptide-(235-249), ELDLDIKEVFVHPNY]",0%,–
"GEYDLRRWEKWELDL-NH2 [peptide-(224-238), GEYDLRRWEKWELDL]",0%,–
"HPSWVLTAAHSMDES-NH2 [peptide-(202-216), HPSWVLTAAH -SMDES]",0%,–
"LDSKKKLASGAVLIH-NH2 [peptide-(188-202), LDSKKKLA -SGAVLIH]",0%,–
"LIDGKMTRRGDSPWQ-NH2 [peptide-(170-184), LIDGKMTRRGDSPWQ]",0%,–
"LLHLAQPATLSQTIV-NH2 [peptide-(260-274), LLHLAQPATLSQTIV]",0%,–
"PATLSQTIVPICLP-NH2 [peptide-(266-279), PATLSQTIVPICLP]",0%,–
"PATLSQTIVPISLPD-NH2 [peptide-(266-280) SEQ ID NO 7, PATLSQTIVPI -SLPD]",0%,–
"QDACEGDSGGPMVA-NH2 [peptide-(353-366), QDACEGDSGGPMVA]",0%,–
"RRWEKWELDLDIKEV-NH2 [peptide-(229-243), RRWEKWELDLDIKEV]",0%,–
"SKKLLVRLGEYDLRR-NH2 [peptide-(216-230), SKKLLVRLGEYDLRR]",0%,–
SKSTTDNDIALLHLA [peptide-(250-263)],–,0%
"TRRGDSPWQVVLLDS-NH2 [(176-190), TRRGDSPWQVVLLDS]",25%,–
"VLTAAHCMDESKKL-NH2 [peptide-(206-219), VLTAAHCMDESKKL]",0%,–

# Continued, values first:
inhibition at 500 µM,Inhibition of APC (%),Substance
0%,–,"AGILGDRQDA-NH2 [peptide-(346-355), AGILGDRQDA]"
0%,–,"DRQDASEGDSGGPMV-NH2 [peptide-(351-365), DRQDA -SEGDSGGPMV]"
0%,–,"EVMSNMVSENMLSAG-NH2 [peptide-(333-347), EVMSNMVSENML -SAG]"
0%,–,"GHIRDKEAPQKSWAP-NH2 [peptide-(405-419), GHIRDKEAPQKSWAP]"
–,0%,GTWFLVLVSWGEGC [peptide-(370-384)]
0%,–,"HIWDLYRSVKTYVGY-NH2 [peptide-(404-390), HIWDLYRSVKTYVGY]"
0%,–,"HSSREKEAKRNRTFV-NH2 [peptide-(303-317), HSSREKEAKRNRTFV]"
0%,–,"IVPISLPDSGLAERE-NH2 [peptide-(273-287), IVPI -SLPDSGLAERE]"
0%,–,"LPDSGLAERELNQAG-NH2 [peptide-(278-292), LPDSGLAERELNQAG]"
0%,–,"MSNMVSENMLCAGI-NH2 [peptide-(335-348), MSNMVSENMLCAGI]"
0%,–,"PATLSQTIVPIGLPD-NH2 [peptide-(266-280) SEQ ID NO 8, PATLSQTIVPI -- GLPD]"
0%,–,"QETLVTGWGYHSSRE-NH2 [peptide-(293-307), QETLVTGWGYHSSRE]"
50%,–,"VLNFIKIPVVPHNEC-NH2 [peptide-(317-331), VLNFIKIPVVPHNEC]"
95%,–,"VSRYLDWIHGHIRDK-NH2 [peptide-(396-410), VSRYLDWIHGHIRDK]"

# Same assay, conditions: final peptide concentration at which 50% inhibition of APC activity was observed
row,IC50,Substance
1,500 µM,"VLNFIKIPVVPHNEC-NH2 [peptide-(317-331), VLNFIKIPVVPHNEC]"
2,70 µM,"VSRYLDWIHGHIRDK-NH2 [peptide-(396-410), VSRYLDWIHGHIRDK]"

# Same assay, conditions: final peptide concentration at which 90% inhibition of APC activity was observed; read-out: IC90
row,IC90,Substance
1,300 µM,"VSRYLDWIHGHIRDK-NH2 [peptide-(396-410), VSRYLDWIHGHIRDK]"

# Molecular target: T1, APC
# Assay: Activated partial thromboplastin time (APTT) coagulation assay of APC anticoagulant activity
# Format: biochemical
# Details: APTT assay in the presence of APC
# Experimental: as §1, with “2c1). Residual total protein S content in the resultant PSDP was less than 0.1% protein S as determined by quantitative immunoblotting, by solid-phase ELISA for total protein S and by electroimmunoassay.” for “2c1).”
# For the APTT assay, APC was prepared as described in Example 2c2). The specific anticoagulant activity of APC was determined to be 250 Units/mg. The concentration of the APC used in the assay was initially optimized with respect to the sensitivity of the assay towards APC-induced prolongation of clotting time compared to clotting time without APC.
# as §2
# Additional assays were performed to compare the specificity of the inhibitory effect of peptide-(390-404) on APC anticoagulant activity. Both APTT and Xa-1-stage assays were performed with peptide-(390-404) and with the same peptide synthesized in the reverse order, peptide-(404-390), at concentrations of the peptides ranging from 0 μM to 40 μM. In APTT assays performed as described above in the presence of NHP, APC was used at a concentration of 2.5 nM. For APTT assays in the presence of PSDP, APC was used at a concentration of 5 nM. […]
# Once the optimal concentration of APC was determined, anti-(390-404) was separately admixed ranging in concentration from 0.0 to 240 nM with APC in 200 μl of TBS-BSA and 30 mM CaCl2 at pH 7.4 to form an anti-(390-404)-APC immunoreaction admixture pre-maintenance solution. […]
IC50,IC90,Substance
500 µM,–,"VLNFIKIPVVPHNEC-NH2 [peptide-(317-331), VLNFIKIPVVPHNEC]"
70 µM,300 µM,"VSRYLDWIHGHIRDK-NH2 [peptide-(396-410), VSRYLDWIHGHIRDK]"

# Source: patent US5279956A, “Activated protein C polypeptides and anti-peptide antibodies, diagnostic methods and systems for inhibiting activated protein C” (The Scripps Research Institute, priority 1991, dated 1994)
